Results on two molecules are retold here after patent publication US8691222B2, “NLRR-1 antagonists and uses thereof” (Genentech, Inc., priority 2007, dated 2014).

Series [1] concerns lung tumor cell lines which endogenously express NLRR-1. To be noted: several lung tumor cell lines classified as resistant to erlotinib; cited from earlier work.
For series [2], the system named is NCI-H2009 cells. The following applies: NCI-H2009, characterized as sensitive to erlotinib; cited from earlier work.
Series [3] concerns SK-MES1 lung carcinoma cell line. Briefly: Proliferation assay (Cell Titer Glo) after siRNA knockdown, SK-MES1. In kind it is cell-based, human. To be noted: 100 nM siRNA; 4 days; SK-MES1, does not express NLRR-1. Here is the method:
(§1) The NLRR-1 siRNA duplex was designed and synthesized by Dharmacon (Lafayette, Colo.). The sense sequence is […] (SEQ ID NO: 11) and the antisense sequence is 5′-[…] (SEQ ID NO: 12). NCI-H2009, NCI-H647, NCI-H226, and SK-MES-1 cells were seeded at 2830/cm^2 and NCI-H520 and NCI-H1781 cells were seeded at 5660/cm^2. 100 nM of siRNA was transfected with DharmaFECT 4 for 6 to 8 hours before the transfectant was replaced with fresh media. A non-targeting siRNA sequence (Dharmacon) was used as a negative control. RT-PCR was performed on RNA extracted from 60 mm plates using RNeasy (Qiagen, Valencia, Calif.) per manufacturer's instructions. EGFR flow cytometry and immunoblot: After siRNA transfection for 24 hours, cells were harvested and stained with α-EGFR antibody conjugated to PE (BD Pharmingen) and propidium iodide for flow cytometry analysis. 10,000 events were collected and cells were gated on FSC, SSC, and PI. For immunoblot analysis, lysates were immunoblotted with α-EGFR (MBL) or α-βtubulin (Santa Cruz Biotechnology). […] Cell growth was assessed after 4 days by Cell Titer Glo (Promega, Madison, Wis.) per manufacturer's instructions. […] For apoptosis assay with starvation, cells were starved in Optimem I. For both assays, cell viability was measured with Cell Titer Glo (Promega, Madison, Wis.) and apoptosis was measured with Caspase-Glo 3/7 (Promega) after 2 days. […]

The test system of series [4] is NCI-H520 cells. Briefly: Apoptosis and erlotinib synergy assay, NCI-H520. In kind it is cell-based, human. The following applies: NLRR-1 siRNA knockdown plus increasing concentrations of erlotinib; NCI-H520, resistant; FIG. 8D. Here is the method: as §1
Series [5] deals with SK-MES cells (NLRR-1-negative). Briefly: Apoptosis and erlotinib synergy assay, SK-MES. In kind it is cell-based, human. The following applies: NLRR-1 siRNA knockdown plus increasing concentrations of erlotinib, erlotinib-sensitive, FIG. 8F. Here is the method: as §1
Series [6] relates to NCI-H2009 cells. The series can be described thus: Apoptosis and erlotinib synergy assay, NCI-H2009. In kind it is cell-based, human. To be noted: NLRR-1 siRNA knockdown plus increasing concentrations of erlotinib; NCI-H2009, erlotinib-sensitive; FIG. 8E. Here is the method: as §1
Series [7] has as its system NCI-H647 cells. The series can be described thus: Apoptosis and erlotinib synergy assay, NCI-H647. To be noted: NLRR-1 siRNA knockdown plus increasing concentrations of erlotinib; NCI-H647, erlotinib-resistant; FIG. 8A. In kind it is cell-based, human. The procedure: as §1
The subject of series [8] is EGFR in NCI-H2009, NCI-H226, NCI-H647 cells. Briefly: EGFR flow cytometry and immunoblot after NLRR-1 siRNA knockdown. In kind it is cell-based, human. Here is the method: as §1
For series [9], the system named is cell lines that endogenously expressed NLRR-1. The series can be described thus: Apoptosis assay with starvation (caspase 3/7) after siRNA knockdown. To be noted: vs non-targeting control RNA. In kind it is cell-based, human. Here is the method: as §1, with “instructions.” for “instructions. EGFR flow cytometry and immunoblot: After siRNA transfection for 24 hours, cells were harvested and stained with α-EGFR antibody conjugated to PE (BD Pharmingen) and propidium iodide for flow cytometry analysis. 10,000 events were collected and cells were gated on FSC, SSC, and PI. For immunoblot analysis, lysates were immunoblotted with α-EGFR (MBL) or α-βtubulin (Santa Cruz Biotechnology).”
EGFR pathway activation in tumor cells has consequences for many important cellular processes, including cell survival. […] NLRR-1 was knocked down using siRNA, cells were subjected to starvation to promote apoptosis, and apoptosis was measured by caspase 3/7 activity and normalized for viable cells (FIG. 6C).

Series [10] deals with NCI-H1781 cells. The series can be described thus: Apoptosis and erlotinib synergy assay, NCI-H1781. The following applies: NLRR-1 siRNA knockdown plus increasing concentrations of erlotinib; NCI-H1781, resistant; FIG. 8B. In kind it is cell-based, human. The procedure:
as §1

The subject of series [11] is NCI-H226 cells. The series can be described thus: Apoptosis and erlotinib synergy assay, NCI-H226. In kind it is cell-based, human. The following applies: NLRR-1 siRNA knockdown plus increasing concentrations of erlotinib; NCI-H226, resistant; FIG. 8C. Here is the method:
as §1

As for `C#Cc1cccc(Nc2ncnc3cc(OCCOC)c(OCCOC)cc23)c1` [erlotinib], the 50% inhibitory concentration (IC50) in [1] was at least 8 µM; in series [2], at most 2 µM.

For the molecule “NLRR-1 siRNA: siRNA duplex by Dharmacon; sense GCCAGAACCUGAAAUUUACUU (SEQ ID NO: 11), antisense 5′-PGUAAAUUUCAGGUUCUGGCUU (SEQ ID NO: 12) (5' phosphate on antisense, further chemistry not given here)”, in series [3], the “proliferation (ATP-based cell viability)” value is “no significant defect in proliferation”. For the same molecule, the “apoptosis (caspase 3/7 activity) in presence of erlotinib” value in [4] is “possibly also, to a lesser degree”; in series [5], “did not show any increase in apoptosis”; in series [6] it was “did not show any increased apoptosis”; in series [7], “significant increase in sensitivity”; in series [10] it was “synergy”; in series [11] it was “synergy”. Also, the “total EGFR protein level” value in [8] (NLRR-1 depleted vs control-depleted cells, immunoblot) is reported as “unchanged”. Further, the “surface EGFR protein level” value in series [8] (siRNA knockdown 24 hours, NCI-H2009, NCI-H226, NCI-H647, vs non-targeting siRNA, flow cytometry) is “increase in surface EGFR”. For the same molecule, the “apoptosis (caspase 3/7 activity normalized for viable cells)” value in [9] is reported as “increase in apoptosis”.
